Blank lines part the entries; values can stand above or below the compound they belong to.
What was measured:
[1] = system: placental stem cells; experiment: Differentiation into cardiomyocytes (RT-PCR); type: cell-based, human; conditions: 1 mM, day 14 versus day 0, RT-PCR
Method: Placental stem cells (PSCs) were cultured in the presence of L-Ascorbic acid 2-phosphate (1 mM) for 14 days. Total RNA was extracted on day 0 and day 14 and used for RT-PCR analysis. Cardiomyocyte specific genes primers were designed specifically for cardiac transcription factor GATA-4, atrial myosin light chain type 2 (MLC-2A), ventricular myosin light chain type 2 (MLC-2V), human atrial natriuretic peptide (hANP), and cardiac troponin T (cTnT). The PCR reaction conditions were 45 cycles/57° C. annealing temperature. The PCR products were size fractioned by 2.5% agarose gel electrophoresis.

[2] = system: placental stem cells; experiment: Differentiation into neural cells; type: cell-based, human
Method: […] Immunohistochemical analysis of the expression of the different genes was conducted with antibodies specific to the human proteins.

[3] = system: CYP1A1/2; experiment: EROD assay (ethoxyresorufin-o-deethylase); type: cell-based; conditions: prior exposure 50 uM; human hepatocytes and hepatocytes derived from PSCs
Method: Human hepatocytes were cultured using the conditions of Strom et al. Methods in Enzymology 272:388-401 (1996).
An EROD assay which measures the conversion of ethoxy-resorufin to hydroxyresorufin was used to detect expression of CYP1A1 or CYP1A2 in human hepatocytes and hepatocytes derived from placental stem cells (Kelley et al. J. Biomolecular Screening 5:249-253 (2000). CYP1A activity in these cells was induced by exposing the hepatocytes to beta-naphthoflavone (50 uM).

[4] = system: placental stem cells; experiment: Differentiation into pancreatic cells (RT-PCR); type: cell-based, human; conditions: on Matrigel, 14 days
Method: Placental stem cells were maintained in standard growth media for 7 days and then trypsinized and seeded on cultures previously coated with matrigel (MG), a commercially available form of basement membrane proteins. Cultures were coated with 20% (v/v; matrigel to media) or 100% matrigel with essentially identical results. […] After 10-14 days the cells were lysed and RNA was isolated, and reverse transcriptase-PCR analysis was conducted with PCR primers specific for Pax 6, PDX-1 Nkx2.2, insulin, glucagon and an internal control, beta-actin.

[5] = system: placental stem cells
Method: The cells were cultured for either 7-10 days or until the cultures grew to confluence. The cells were trypsinized and reseeded in 6 well plates. The cells were subjected to different culture conditions, having varying growth factors supplementing the DMEM or MEM based medium. […] Placental stem cells were cultured for an additional 14 days. At the end of 14 days, the cells were evaluated for the expression of human albumin, CYP3A4, A1AT, or C/EBP-alpha.

Compound: O=C1O[C@H]([C@@H](O)CO)C(O)=C1OP(=O)(O)O [L-Ascorbic acid 2-phosphate]
expression of MLC-2A and MLC-2V genes [1]: significantly up-regulated

Compound: CC1=C(/C=C/C(C)=C/C=C/C(C)=C/C(=O)O)C(C)(C)CCC1 [all trans retinoic acid, all-trans retinoic acid]
expression of GFAP, beta-tubulin III and CNP ([2]; immunofluorescence, FIG. 9A): express | expression of nestin and glutamic acid decarboxylase (GAD) ([2]; over 7 days of culture, FIG. 9B): increase

effect on EROD activity [3]: induced
Compound: O=c1cc(-c2ccccc2)oc2ccc3ccccc3c12 [beta-naphthoflavone (BNF), beta-naphthoflavone]

Compound: NC(=O)c1cccnc1 [nicotinamide]
expression of pancreatic markers (insulin, glucagon, PDX-1, Pax6, Nkx2.2) [4]: express insulin and glucagon

Compound: FGF 2: fibroblast growth factor 2, media supplement
liver specific gene expression (albumin, CYP3A4, A1AT, C/EBP-alpha) [5]: did not enhance liver specific gene expression

Compound: hepatocyte growth factor (HGF): hepatocyte growth factor, media supplement
liver specific gene expression (albumin, CYP3A4, A1AT, C/EBP-alpha) [5]: did not enhance liver specific gene expression

Source: patent publication US20040161419A1, “Placental stem cells and uses thereof” (priority 2002, published 2004)
